Results: ChEMBL document CHEMBL1201862, “PubChem BioAssay data set” (2004)
Activity calls are given as the source filed them.

What was measured:
[1] = viability loss in CEM21 cells – cell-based, CellTiter-Glo luminescence, cherry-picked, cytotoxicity control for viral fusion inhibitor project, dose response (AID 652042); format: functional;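 also: potency for signal decrease meaning cytotoxicity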
[2] = off-target signal loss in HeLa-CEM21 co-culture – HeLa F-luc CTL cells, cherry-picked, counter-screen for HIV-1 Env fusion inhibitor project, dose response (AID 652040); format: functional, cell-based;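 also: potency for signal decrease marking cytotoxic or nonspecific inhibition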
[3] = HIV-1 AD8 envelope cell-cell fusion blockers – cherry-pick, dose response (AID 652062); format: functional, cell-based;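 also: luciferase signal from cell-cell fusion driven by HIV-1 clade B AD8 Env; potency is for inhibitors of fusion seen as a drop in luminescence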
[4] = target: Fatty acid synthase (Homo sapiens, UniProt P49327); experiment: inhibition of human FAS-TE enzyme activity – biochemical, kinetic fluorescence intensity, dose response (AID 624326); format: functional;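 also: rate of fluorescence rise from hydrolysis of a fluorogenic O-methyl fluorescein ester substrate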
Chain of Fatty acid synthase (P49327 whole entry): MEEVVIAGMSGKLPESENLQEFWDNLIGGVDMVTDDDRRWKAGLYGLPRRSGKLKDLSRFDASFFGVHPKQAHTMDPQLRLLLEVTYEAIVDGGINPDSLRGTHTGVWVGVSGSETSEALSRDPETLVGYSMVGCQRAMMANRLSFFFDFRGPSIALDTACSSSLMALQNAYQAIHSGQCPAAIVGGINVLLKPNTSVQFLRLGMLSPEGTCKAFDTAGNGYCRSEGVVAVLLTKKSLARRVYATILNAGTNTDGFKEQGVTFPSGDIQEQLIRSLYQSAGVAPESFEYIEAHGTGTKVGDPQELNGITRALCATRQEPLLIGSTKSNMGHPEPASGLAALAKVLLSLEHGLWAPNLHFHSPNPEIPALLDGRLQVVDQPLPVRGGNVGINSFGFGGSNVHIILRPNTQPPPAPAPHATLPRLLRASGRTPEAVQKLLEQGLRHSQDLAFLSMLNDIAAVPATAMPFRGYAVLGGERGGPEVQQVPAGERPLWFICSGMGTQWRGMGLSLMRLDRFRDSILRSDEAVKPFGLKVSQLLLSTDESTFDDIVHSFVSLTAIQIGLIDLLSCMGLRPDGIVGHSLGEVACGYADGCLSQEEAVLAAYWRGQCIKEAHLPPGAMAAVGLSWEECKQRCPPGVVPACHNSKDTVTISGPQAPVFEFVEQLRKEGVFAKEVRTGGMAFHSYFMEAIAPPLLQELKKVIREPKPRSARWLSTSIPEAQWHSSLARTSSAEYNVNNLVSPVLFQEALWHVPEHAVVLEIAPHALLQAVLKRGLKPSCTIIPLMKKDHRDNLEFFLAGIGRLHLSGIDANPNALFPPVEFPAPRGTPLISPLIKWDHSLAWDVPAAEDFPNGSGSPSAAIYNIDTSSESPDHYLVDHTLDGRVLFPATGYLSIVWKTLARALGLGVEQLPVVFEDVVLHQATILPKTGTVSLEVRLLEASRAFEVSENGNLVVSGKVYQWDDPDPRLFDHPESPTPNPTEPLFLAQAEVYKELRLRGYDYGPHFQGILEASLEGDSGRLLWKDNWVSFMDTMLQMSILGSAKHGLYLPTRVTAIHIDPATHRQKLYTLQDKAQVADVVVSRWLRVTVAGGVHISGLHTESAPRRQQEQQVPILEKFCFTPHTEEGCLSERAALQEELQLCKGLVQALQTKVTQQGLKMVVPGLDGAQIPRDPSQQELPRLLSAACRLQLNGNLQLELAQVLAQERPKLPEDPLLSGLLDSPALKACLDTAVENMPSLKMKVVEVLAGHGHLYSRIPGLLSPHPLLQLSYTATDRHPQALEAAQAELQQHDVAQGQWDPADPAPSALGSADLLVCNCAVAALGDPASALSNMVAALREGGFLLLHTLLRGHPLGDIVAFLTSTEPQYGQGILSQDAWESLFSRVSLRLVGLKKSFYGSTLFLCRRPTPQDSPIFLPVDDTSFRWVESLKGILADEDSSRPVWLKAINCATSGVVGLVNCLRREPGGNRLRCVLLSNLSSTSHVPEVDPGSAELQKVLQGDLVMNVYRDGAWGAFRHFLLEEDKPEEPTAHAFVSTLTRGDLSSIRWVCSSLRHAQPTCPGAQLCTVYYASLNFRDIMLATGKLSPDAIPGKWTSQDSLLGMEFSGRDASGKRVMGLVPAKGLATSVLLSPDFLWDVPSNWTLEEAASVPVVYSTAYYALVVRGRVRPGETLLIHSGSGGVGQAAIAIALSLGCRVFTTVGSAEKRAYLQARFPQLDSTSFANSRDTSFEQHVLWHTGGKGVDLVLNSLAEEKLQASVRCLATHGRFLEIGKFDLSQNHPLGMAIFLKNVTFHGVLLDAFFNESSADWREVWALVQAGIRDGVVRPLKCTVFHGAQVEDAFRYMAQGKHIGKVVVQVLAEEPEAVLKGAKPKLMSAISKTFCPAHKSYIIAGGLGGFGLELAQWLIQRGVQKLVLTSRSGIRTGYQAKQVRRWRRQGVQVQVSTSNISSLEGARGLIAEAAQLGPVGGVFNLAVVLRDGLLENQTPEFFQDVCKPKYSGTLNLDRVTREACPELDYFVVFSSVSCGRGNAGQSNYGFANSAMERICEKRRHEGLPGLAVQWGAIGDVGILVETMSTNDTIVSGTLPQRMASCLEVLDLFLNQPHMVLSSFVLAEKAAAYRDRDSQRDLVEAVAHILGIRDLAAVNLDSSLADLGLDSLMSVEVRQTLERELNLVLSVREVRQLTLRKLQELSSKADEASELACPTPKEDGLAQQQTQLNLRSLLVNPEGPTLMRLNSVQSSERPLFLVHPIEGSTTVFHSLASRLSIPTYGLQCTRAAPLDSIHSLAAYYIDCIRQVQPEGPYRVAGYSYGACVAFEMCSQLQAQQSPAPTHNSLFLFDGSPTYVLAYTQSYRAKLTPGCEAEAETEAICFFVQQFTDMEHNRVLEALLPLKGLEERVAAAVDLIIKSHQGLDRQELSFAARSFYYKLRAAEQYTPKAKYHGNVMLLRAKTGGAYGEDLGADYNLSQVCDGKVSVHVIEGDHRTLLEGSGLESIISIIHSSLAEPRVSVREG

[5] = target: T1, Protein skinhead-1 (Caenorhabditis elegans, UniProt P34707); format: functional
T1 sequence (P34707 whole entry): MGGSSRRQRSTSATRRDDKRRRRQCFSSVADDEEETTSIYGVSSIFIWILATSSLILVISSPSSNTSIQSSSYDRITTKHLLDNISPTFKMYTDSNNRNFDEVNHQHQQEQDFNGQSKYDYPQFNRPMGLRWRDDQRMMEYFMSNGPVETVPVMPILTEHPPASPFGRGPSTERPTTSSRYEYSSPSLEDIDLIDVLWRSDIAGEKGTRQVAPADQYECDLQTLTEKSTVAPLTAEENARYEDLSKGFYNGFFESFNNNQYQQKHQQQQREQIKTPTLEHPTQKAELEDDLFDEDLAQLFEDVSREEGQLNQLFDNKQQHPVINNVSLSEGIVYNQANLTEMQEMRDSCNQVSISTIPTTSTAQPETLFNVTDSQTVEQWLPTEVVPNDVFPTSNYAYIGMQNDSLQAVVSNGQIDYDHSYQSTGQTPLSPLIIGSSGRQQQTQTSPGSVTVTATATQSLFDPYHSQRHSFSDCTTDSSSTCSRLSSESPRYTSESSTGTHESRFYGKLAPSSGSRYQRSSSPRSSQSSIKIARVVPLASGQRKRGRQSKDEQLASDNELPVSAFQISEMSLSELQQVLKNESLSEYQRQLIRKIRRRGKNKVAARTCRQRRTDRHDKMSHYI

[6] = target: T2, DNA repair protein RAD52 homolog (Homo sapiens, UniProt P43351); format: functional, biochemical
T2 sequence (P43351 whole entry): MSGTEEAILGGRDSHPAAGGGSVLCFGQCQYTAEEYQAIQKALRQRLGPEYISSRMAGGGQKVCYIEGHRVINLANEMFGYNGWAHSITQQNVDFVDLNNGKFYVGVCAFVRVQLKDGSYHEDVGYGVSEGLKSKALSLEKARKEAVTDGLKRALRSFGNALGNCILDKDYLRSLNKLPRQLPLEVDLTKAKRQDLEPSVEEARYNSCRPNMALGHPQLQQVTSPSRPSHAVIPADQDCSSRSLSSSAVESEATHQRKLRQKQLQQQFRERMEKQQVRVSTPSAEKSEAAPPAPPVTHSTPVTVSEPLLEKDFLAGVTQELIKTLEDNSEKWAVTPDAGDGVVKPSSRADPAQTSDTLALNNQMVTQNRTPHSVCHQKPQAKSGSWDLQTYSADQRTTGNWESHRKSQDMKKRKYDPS

[7] = target: Cytochrome P450 2C19 (Homo sapiens, UniProt P33261); experiment: Cytochrome panel assay with activity outcomes. Panel member name: p450-cyp2c19 Compounds with AC50 equal or less than 10 uM are considered active; format: functional; conditions: read-out: AC50
Chain of Cytochrome P450 2C19 (P33261 whole entry): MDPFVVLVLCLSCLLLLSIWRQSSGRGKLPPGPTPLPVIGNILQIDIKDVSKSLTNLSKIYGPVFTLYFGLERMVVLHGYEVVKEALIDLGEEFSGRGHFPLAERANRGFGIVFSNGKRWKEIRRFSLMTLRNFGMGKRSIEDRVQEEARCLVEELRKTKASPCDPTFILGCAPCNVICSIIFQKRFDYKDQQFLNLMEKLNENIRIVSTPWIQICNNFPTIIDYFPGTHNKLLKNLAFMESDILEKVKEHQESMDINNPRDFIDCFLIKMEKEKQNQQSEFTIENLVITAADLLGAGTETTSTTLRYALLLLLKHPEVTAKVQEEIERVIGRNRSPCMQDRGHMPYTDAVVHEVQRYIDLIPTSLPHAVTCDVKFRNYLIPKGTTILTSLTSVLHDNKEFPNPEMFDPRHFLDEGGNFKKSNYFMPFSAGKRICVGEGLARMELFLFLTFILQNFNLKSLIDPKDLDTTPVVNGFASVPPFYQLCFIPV

[8] = target: Cytochrome P450 2C9 (Homo sapiens, UniProt P11712)
Chain of Cytochrome P450 2C9 (P11712 whole entry): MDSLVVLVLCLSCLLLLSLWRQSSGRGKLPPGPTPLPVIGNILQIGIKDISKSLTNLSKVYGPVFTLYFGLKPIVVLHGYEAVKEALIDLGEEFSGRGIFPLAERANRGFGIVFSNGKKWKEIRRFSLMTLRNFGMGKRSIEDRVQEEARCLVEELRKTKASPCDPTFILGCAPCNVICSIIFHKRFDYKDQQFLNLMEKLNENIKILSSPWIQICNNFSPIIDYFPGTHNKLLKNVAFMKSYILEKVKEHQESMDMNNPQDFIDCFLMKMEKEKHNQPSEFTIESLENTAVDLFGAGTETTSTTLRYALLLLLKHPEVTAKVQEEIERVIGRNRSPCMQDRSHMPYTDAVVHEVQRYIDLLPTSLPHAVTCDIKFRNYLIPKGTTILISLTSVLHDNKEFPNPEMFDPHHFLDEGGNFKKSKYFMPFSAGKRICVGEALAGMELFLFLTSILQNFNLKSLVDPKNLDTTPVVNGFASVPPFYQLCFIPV

[9] = HGIII-sPLA2 enzyme inhibition potency – biochemical, QFRET, IC50, dose response (AID 743457);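 also: green fluorescence rise as the enzyme cleaves BODIPY PC-A2 in liposomes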
[10] = blockers of HIV-1 envelope-mediated cell-cell fusion – cherry-pick, dose response (AID 652057); format: functional, cell-based
[11] = blockers of HIV-1 ZM109 envelope-driven cell-cell fusion – HeLa effector, CEM target cells, luciferase, cherry-pick, dose response (AID 652058); format: functional, cell-based;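 also: luciferase signal from HIV-1 Env mediated cell-cell fusion of effector and target cells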
[12] = HEK-293T viability loss after treatment – luminescence, T-cell screen hits, cytotoxicity control for TCR NF-kB inhibitor project, dose response (AID 489026); format: functional, cell-based;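 also: cells exposed to compound about 14 hours before the viability readout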
[13] = reduction of Shn3 3'UTR-driven luciferase in osteoblasts – cell-based, Clone20 osteoblasts, firefly luciferase, cherry-picked, dose response (AID 624132); format: functional;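 also: firefly luciferase luminescence from reporter carrying the Shn3 3'UTR in osteoblasts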
[14] = loss of viability in HepG2 cells – cell-based, CellTiter-Glo, cherry-picked, cytotoxicity control for Shn3 inhibitor project, dose response (AID 624134); format: functional
[15] = non-specific 3'UTR reporter inhibition in Clone20-Shn3RL – cell-based, Renilla luciferase, cherry-picked, counter-screen for Shn3 inhibitor project, dose response (AID 624133); format: functional
[16] = target: T3, Polyadenylate-binding protein 1 (Homo sapiens, UniProt P11940); experiment: MLLE binding blockers, Cy5 peptide tracer – biochemical, fluorescence polarization, Cy5-PAM2 peptide, secondary, miRNA deadenylation inhibitor project, dose response (AID 602260); format: functional; conditions: read-out: IC50_Mean
T3 sequence (P11940 whole entry, the tested form may be a part): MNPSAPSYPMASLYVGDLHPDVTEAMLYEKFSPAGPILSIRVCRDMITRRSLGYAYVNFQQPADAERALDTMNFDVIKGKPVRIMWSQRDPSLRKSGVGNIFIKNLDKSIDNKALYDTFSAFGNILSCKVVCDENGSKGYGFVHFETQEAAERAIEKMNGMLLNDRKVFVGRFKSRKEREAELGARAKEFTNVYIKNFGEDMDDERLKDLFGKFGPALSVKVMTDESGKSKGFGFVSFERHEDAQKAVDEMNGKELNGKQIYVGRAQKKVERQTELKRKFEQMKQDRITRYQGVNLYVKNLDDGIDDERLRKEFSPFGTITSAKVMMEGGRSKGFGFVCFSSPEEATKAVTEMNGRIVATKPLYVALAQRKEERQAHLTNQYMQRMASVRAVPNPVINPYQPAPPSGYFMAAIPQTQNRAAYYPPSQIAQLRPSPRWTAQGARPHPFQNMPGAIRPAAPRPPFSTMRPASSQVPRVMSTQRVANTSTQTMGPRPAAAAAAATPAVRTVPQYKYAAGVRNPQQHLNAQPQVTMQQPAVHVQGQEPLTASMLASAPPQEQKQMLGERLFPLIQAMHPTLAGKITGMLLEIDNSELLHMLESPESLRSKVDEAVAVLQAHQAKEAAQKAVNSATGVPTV

[17] = target: T3, Polyadenylate-binding protein 1; experiment: MLLE domain peptide-binding blockers, IC50 – biochemical, fluorescence polarization, FITC-PAM2 peptide, dose response (AID 602259); format: functional; conditions: read-out: IC50_Mean
[18] = target: T4, Corticotropin-releasing factor receptor 2/Corticotropin-releasing factor-binding protein (Homo sapiens, UniProt P24387+Q13324); experiment: activators of CRF receptor 2 with binding protein – uHTS hits, confirmation (AID 602473); format: functional; conditions: read-out: EC50_Mean
T4 sequence (Q13324 whole entry): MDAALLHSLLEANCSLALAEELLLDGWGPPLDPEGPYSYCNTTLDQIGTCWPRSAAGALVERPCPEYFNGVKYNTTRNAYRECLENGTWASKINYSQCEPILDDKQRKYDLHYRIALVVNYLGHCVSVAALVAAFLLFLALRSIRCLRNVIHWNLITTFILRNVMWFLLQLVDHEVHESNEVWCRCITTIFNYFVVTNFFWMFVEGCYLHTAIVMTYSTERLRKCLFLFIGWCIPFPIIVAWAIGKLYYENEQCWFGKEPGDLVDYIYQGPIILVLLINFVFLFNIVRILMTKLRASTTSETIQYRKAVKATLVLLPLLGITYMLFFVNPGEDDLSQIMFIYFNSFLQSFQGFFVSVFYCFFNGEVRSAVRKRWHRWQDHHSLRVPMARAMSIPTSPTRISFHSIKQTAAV
T4 sequence (P24387 whole entry): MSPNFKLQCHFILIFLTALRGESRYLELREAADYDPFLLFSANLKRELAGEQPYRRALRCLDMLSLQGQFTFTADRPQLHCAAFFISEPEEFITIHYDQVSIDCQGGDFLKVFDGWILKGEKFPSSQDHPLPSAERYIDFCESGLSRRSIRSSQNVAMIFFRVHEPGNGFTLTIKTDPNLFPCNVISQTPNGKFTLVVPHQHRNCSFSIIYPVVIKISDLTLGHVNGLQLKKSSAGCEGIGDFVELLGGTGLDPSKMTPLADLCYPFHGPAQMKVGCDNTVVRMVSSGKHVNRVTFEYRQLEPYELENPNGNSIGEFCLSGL

Compound: CCN(CC)S(=O)(=O)c1cccc(NC(=O)c2ccc(-n3nc(C)cc3C)cc2)c1
- AC50 [1]: 49.7 µM (active)
- AC50 [2]: 10.7 µM (active)
- AC50 [3]: 15.8 µM (active)

Compound: O=C(C[C@H]1C[C@H](C(=O)N2CCOCC2)[C@@]2(CCC3CCCC3)c3[nH]c4cc(-c5ccco5)ccc4c3CCN2C1=O)NCCc1ccccn1
- IC50 [4]: 7.01 µM (active)

Compound: O=C(CCS(=O)(=O)c1cccc2nsnc12)N1CCN(c2ccccc2F)CC1
- IC50 [5]: > 100 µM (inactive)

Compound: N=C(N)Nc1ccc2[nH]c3c(c2c1)C[C@@]1(O)[C@H]2Cc4ccc(O)c5c4[C@@]1(CCN2CC1CC1)[C@H]3O5
- AC50 [6]: 8.43 µM (active)

Compound: COCCCNC(=O)/C=C/c1cccc(Cl)c1
- AC50 [7]: 15.8 µM (inconclusive)
- AC50 [8]: inconclusive

Compound: COc1ccc(CCC(=O)NN=C(S)Nc2cccc(C(C)=O)c2)cc1
- IC50 [9]: > 122 µM (inactive)

Compound: COc1ccccc1N=C(S)NNC(=O)c1nn(C)c(C)c1Cl
- IC50 [9]: > 122 µM (inactive)

Compound: C[C@H](CO)N1C[C@H](C)[C@H](CN(C)S(=O)(=O)c2cccc(C#N)c2)OCc2ccccc2-c2c(n(C)c3ccccc23)C1=O
- AC50 [10]: 0.726 µM (active)
- AC50 [1]: 46.1 µM (active)
- AC50 [11]: 3.13 µM (active)
- AC50 [3]: 10.3 µM (active)

Compound: CCCC(=O)N1CCN(c2ccc(NC(=O)c3cc4ccccc4o3)cc2)CC1
- IC50 [5]: > 100 µM (inactive)

Compound: O=C(Nc1ccc(N2CCN(C(=O)c3ccc(Cl)cc3)CC2)cc1)c1ccc2c(c1)OCCO2
- IC50 [12]: > 80 µM (inactive)
- AC50 [13]: 2.54 µM (active)
- AC50 [14]: 1.96 µM (active)
- AC50 [15]: 7.89 µM (active)
- AC50 [10]: 32.5 µM (active)
- AC50 [1]: 47.7 µM (active)
- AC50 [11]: 0.791 µM (active)
- AC50 [3]: 6.8 µM (active)

Compound: O=C(NC(=S)NNC(=O)c1ccccc1O)c1ccc([N+](=O)[O-])cc1
- IC50 [16]: > 66 µM (inactive)
- IC50 [17]: > 66 µM (inactive)
- EC50 [18]: > 53 µM (inactive)
- IC50 [9]: > 122 µM (inactive)

Compound: CCn1nccc1C(=O)Nc1ccc(Cl)c(Cl)c1
- IC50 [5]: 43.4 µM (active)
